Data as given in the supplement of paper PMC10307832.

Experiments:
Assay in all cases: relative viability (nuclei count vs DMSO), 5 days (fraction); higher = more cells survive
[1] = compound: Cn1cc(-c2cnn3c(N)c(Br)c([C@@H]4CCCNC4)nc23)cn1 + COc1cccc2cc(-c3nc([C@H]4CC[C@H](C(=O)O)CC4)n4ncnc(N)c34)[nH]c12 [OSI-027] (partner 0.5 µM)
Method in brief: (§1)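 Five library-drug doses in √10 steps were combined with a fixed anchor-drug dose, or a single drug was given alone, by pin tool to lung cancer cell lines in 1536-well plates the day after seeding. Nuclei were stained and counted after 5 days. Relative viability is the nuclei count in treated wells over that in vehicle wells, taken as the median of duplicate plates.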

[2] = compound: Cn1cc(-c2cnn3c(N)c(Br)c([C@@H]4CCCNC4)nc23)cn1 + C[C@@H](Oc1cc(-c2cnn(C3CCNCC3)c2)cnc1N)c1c(Cl)ccc(F)c1Cl [Crizotinib] (partner 1 µM)
Method in brief: as §1

[3] = compound: Cn1cc(-c2cnn3c(N)c(Br)c([C@@H]4CCCNC4)nc23)cn1 + C[C@]1(O)C[C@@H](c2nc(-c3ccc4ccc(-c5ccccc5)nc4c3)c3c(N)nccn32)C1 [Linsitinib] (partner 1 µM)
Method in brief: as §1

[4] = compound: Cn1cc(-c2cnn3c(N)c(Br)c([C@@H]4CCCNC4)nc23)cn1 + Cc1cc(Nc2cc(N3CCN(C)CC3)nc(Sc3ccc(NC(=O)C4CC4)cc3)n2)n[nH]1 [Tozasertib] (partner 0.1 µM)
Method in brief: as §1

Row | Cell Line | relative viability ([1]; first compound 0.05 µM) | relative viability ([1]; first compound 0.1581 µM) | relative viability ([1]; first compound 0.5 µM) | relative viability ([1]; first compound 1.581 µM) | relative viability ([1]; first compound 5 µM) | relative viability ([2]; first compound 0.05 µM) | relative viability ([2]; first compound 0.1581 µM) | relative viability ([2]; first compound 0.5 µM) | relative viability ([2]; first compound 1.581 µM) | relative viability ([2]; first compound 5 µM) | relative viability ([3]; first compound 0.05 µM) | relative viability ([3]; first compound 0.1581 µM) | relative viability ([3]; first compound 0.5 µM) | relative viability ([3]; first compound 1.581 µM) | relative viability ([3]; first compound 5 µM) | relative viability ([4]; first compound 0.05 µM) | relative viability ([4]; first compound 0.1581 µM) | relative viability ([4]; first compound 0.5 µM) | relative viability ([4]; first compound 1.581 µM) | relative viability ([4]; first compound 5 µM)
1 | NCI-H441 | 0.614 | 0.814 | 0.821 | 0.565 | 0.609 | 0.639 | 1.24 | 0.648 | 0.703 | 0.709 | 0.802 | 0.346 | 0.461 | 0.56 | 0.563 | 0.922 | 0.777 | 0.651 | 0.675 | 0.657
2 | NCI-H1793 | 0.286 | 0.282 | 0.324 | 0.309 | 0.304 |  |  |  |  |  | 0.983 | 1.18 | 0.87 | 0.83 | 0.513 | 0.39 | 0.806 | 0.282 | 0.341 | 0.2
3 | NCI-H23 | 0.589 | 0.549 | 0.506 | 0.491 | 0.268 | 0.444 | 0.534 | 0.437 | 0.322 | 0.183 | 0.575 | 0.642 | 0.466 | 0.449 | 0.244 | 0.247 | 0.878 | 0.399 | 0.311 | 0.179
4 | HARA | 0.469 | 0.606 | 0.685 | 0.408 | 0.149 | 0.935 | 1.12 | 0.987 | 0.842 | 0.369 | 1.11 | 1.03 | 1.23 | 0.761 | 0.402 | 0.115 | 0.616 | 0.0879 | 0.0826 | 0.0524
5 | NCI-H1792 |  | 0.91 | 0.677 | 0.574 | 0.719 | 0.843 | 0.861 | 0.861 | 0.656 | 0.582 | 0.709 | 0.531 | 0.347 | 0.327 | 0.274 |  |  |  |  | 
6 | NCI-H1703 |  |  |  |  |  | 0.671 | 0.363 | 0.325 | 0.18 | 0.134 | 0.72 | 0.586 | 0.539 | 0.336 | 0.119 |  |  |  |  | 
7 | NCI-H2342 | 0.52 | 0.632 | 0.585 | 0.526 | 0.593 |  |  |  |  |  |  |  |  |  |  | 0.547 | 0.522 | 0.531 | 0.52 | 0.408
8 | CAL-12T | 0.554 | 0.841 | 0.682 | 0.266 | 0.121 | 0.612 | 0.459 | 0.485 | 0.321 | 0.176 | 0.786 | 0.929 | 0.809 | 0.616 | 0.262 | 0.38 | 0.326 | 0.255 | 0.174 | 0.113
9 | NCI-H727 | 0.551 | 0.761 | 0.719 | 0.711 | 0.429 | 0.912 | 0.965 | 0.664 | 0.648 | 0.353 | 0.189 | 0.261 | 0.235 | 0.289 | 0.236 | 0.695 | 0.489 | 0.806 | 0.503 | 0.468
10 | NCI-H2085 | 0.809 | 0.954 | 0.78 | 0.652 | 0.431 | 0.846 | 1.01 | 0.733 | 0.794 | 0.646 | 0.85 | 0.885 | 0.859 | 0.824 | 0.779 | 0.807 | 0.928 | 0.866 | 0.811 | 0.736
11 | NCI-H1395 | 0.606 | 0.574 | 0.631 | 0.487 | 0.338 |  |  |  |  |  | 1.19 | 0.679 | 1.11 | 0.616 | 0.431 | 0.804 | 0.68 | 0.789 | 0.543 | 0.436
12 | NCI-H1648 | 0.249 | 0.235 |  | 0.258 | 0.261 |  |  |  |  |  |  |  |  |  |  | 0.395 | 0.436 |  | 0.377 | 0.381
13 | NCI-H460 | 0.725 | 0.765 | 0.515 | 0.203 | 0.0935 | 1.01 | 1.36 | 1.03 | 0.842 | 0.3 | 0.611 | 0.68 | 0.728 | 0.217 | 0.183 | 0.421 | 0.482 | 0.537 | 0.475 | 0.222
14 | A549 |  |  |  |  |  | 0.783 | 0.962 | 0.778 | 0.531 | 0.492 | 0.653 | 0.664 | 0.48 | 0.588 | 0.43 |  |  |  |  | 
15 | IA-LM |  |  |  |  |  | 0.944 | 1.01 | 0.886 | 0.321 | 0.271 | 0.666 | 0.867 | 0.653 | 0.544 | 0.37 |  |  |  |  | 
16 | EKVX | 0.676 | 0.75 | 0.733 | 0.71 | 0.633 | 0.942 | 1.27 | 1.09 | 0.821 | 0.945 | 1.02 | 1.06 | 0.946 | 0.68 | 0.874 | 0.423 | 0.449 | 0.448 | 0.462 | 0.344
17 | ChaGo-K-1 | 0.557 | 0.638 | 0.61 | 0.535 | 0.642 | 1.15 | 1.36 | 1.24 | 0.92 | 1.05 |  |  |  |  |  | 0.222 | 0.22 | 0.227 | 0.224 | 0.225
18 | NCI-H1755 | 0.74 | 0.803 | 0.715 | 0.693 | 0.587 | 0.988 | 1.03 | 0.932 | 0.845 | 0.602 | 1.07 | 1.04 | 0.978 | 0.924 | 0.972 | 0.715 | 0.619 | 0.648 | 0.54 | 0.489
19 | NCI-H2228 | 0.689 | 0.674 | 0.592 | 0.458 | 0.315 | 0.502 | 0.491 | 0.404 | 0.419 | 0.277 | 0.975 | 0.895 | 0.628 | 0.586 | 0.459 | 0.249 | 0.221 | 0.205 | 0.211 | 0.124
20 | NCI-H2087 | 0.498 | 0.696 | 0.641 | 0.454 | 0.503 | 1.01 | 1.27 | 0.939 | 0.983 | 0.954 | 1.1 | 1.07 | 0.998 | 1.04 | 0.857 | 0.222 | 0.253 | 0.241 | 0.263 | 0.174
